Patent US7851474B2, “Dipiperazinyl ketones and related analogues” (Neurogen Corporation, priority 2005, dated 2010)

Target: T1, chimeric human H3 receptor (Homo sapiens, UniProt Q9Y5N1, E19D)
T1 construct: made in house; host or cells: Sf9 insect cells (baculovirus infection); P2 membrane preparation
Test: Chimeric human H3 receptor GTP binding assay (agonist-stimulated GTP-gamma35S binding, Example 7)
Format: biochemical
Conditions: not given
Text: This Example illustrates a representative assay for evaluating agonist-stimulated GTP-gamma^35S binding (“GTP binding”) activity. […] This agonist-stimulated GTP binding activity can also be used to detect partial agonism mediated by antagonist compounds. A compound analyzed in this assay is referred to herein as a “test compound.”
Four independent baculoviral stocks (one directing the expression of the chimeric human H3 receptor and three directing the expression of each of the three subunits of a heterotrimeric G-protein) are used to infect a culture of Sf9 cells as described above. P2 membranes are prepared as described above, and agonist-stimulated GTP binding on the P2 membranes is assessed using histamine (Sigma Chemical Co., St. Louis, Mo.) as agonist in order to ascertain that the receptor/G-protein-alpha-beta-gamma combination(s) yield a functional response as measured by GTP binding. P2 membranes are resuspended by Dounce homogenization (tight pestle) in GTP binding assay buffer (50 mM Tris pH 7.4, 120 mM NaCl, 5 mM MgCl2, 2 mM EGTA, 1 mg/ml BSA, 0.2 mg/ml bacitracin, 0.02 mg/ml aprotinin, 0.01 mg/ml saponin, 10 μM GDP) and added to assay tubes at a concentration of 35 μg protein/reaction tube. […] In competition experiments, non-radiolabeled test compounds are added to separate reactions at concentrations ranging from 10^−10 M to 10^−6 M along with 1 μM histamine to yield a final volume of 0.20 ml.
Neutral antagonists are antagonists that are substantially free of inherent agonist activity, and include those test compounds that reduce the histamine-stimulated GTP binding activity towards, but not below, baseline levels. In contrast, in the absence of added histamine, inverse agonists reduce the GTP binding activity of the receptor-containing membranes below baseline.
After a 60-min incubation at room temperature, reactions are terminated by vacuum filtration over WHATMAN GF/C filters (pre-soaked in wash buffer, 0.1% BSA) followed by washing with ice-cold wash buffer (50 mM Tris pH 7.4, 120 mM NaCl). The amount of receptor-bound (and thereby membrane-bound) GTP-gamma^35S is determined by measuring the filter-bound radioactivity, preferably by liquid scintillation spectrometry of the washed filters. […] Data is expressed as percent above basal (baseline). The results of GTP binding experiments are analyzed using SIGMAPLOT software (SPSS Inc., Chicago, Ill.).
IC50 values are calculated by non-linear regression analysis of dose-response curves using Kaleidograph (Synergy Software, Reading, Pa.).

T1 sequence (Q9Y5N1 with tags, fused parts or gaps E19D): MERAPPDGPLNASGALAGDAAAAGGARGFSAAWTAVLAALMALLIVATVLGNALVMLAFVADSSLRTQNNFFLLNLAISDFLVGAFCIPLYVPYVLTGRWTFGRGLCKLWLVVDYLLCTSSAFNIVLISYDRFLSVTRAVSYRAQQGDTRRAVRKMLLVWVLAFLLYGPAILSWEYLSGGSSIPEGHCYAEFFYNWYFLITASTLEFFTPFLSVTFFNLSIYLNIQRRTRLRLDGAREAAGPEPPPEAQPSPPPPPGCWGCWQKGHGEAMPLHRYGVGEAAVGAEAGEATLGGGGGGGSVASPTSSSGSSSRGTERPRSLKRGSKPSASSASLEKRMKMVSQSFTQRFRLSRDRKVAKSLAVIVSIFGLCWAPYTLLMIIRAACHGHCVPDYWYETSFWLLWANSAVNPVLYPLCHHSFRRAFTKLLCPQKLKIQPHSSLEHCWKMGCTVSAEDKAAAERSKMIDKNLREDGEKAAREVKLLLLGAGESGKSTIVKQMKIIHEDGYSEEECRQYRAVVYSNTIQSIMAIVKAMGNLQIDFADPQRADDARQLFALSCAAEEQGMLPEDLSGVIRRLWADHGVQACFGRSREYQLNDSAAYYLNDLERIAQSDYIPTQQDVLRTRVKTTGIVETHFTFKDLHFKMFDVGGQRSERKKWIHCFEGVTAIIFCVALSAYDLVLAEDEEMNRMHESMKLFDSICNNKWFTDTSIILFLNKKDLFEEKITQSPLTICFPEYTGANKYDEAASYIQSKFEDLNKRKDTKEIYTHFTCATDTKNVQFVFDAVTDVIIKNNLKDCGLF

| SMILES | Ki [µM] |
| --- | --- |
| O=C(CN1CCN(c2ccc3c(c2)OCO3)CC1)N1CCN(C2CCCC2)CC1 [Compound 257, 1-(1,3-benzodioxol-5-yl)-4-[2-(4-cyclopentylpiperazin-1-yl)-2-oxoethyl]piperazine] | < 1 |
| CC(C)N1CCN(C(=O)CN2CCN(c3ccc4c(c3)OCO4)CC2)CC1 [Compound 258, 1-(1,3-benzodioxol-5-yl)-4-[2-(4-isopropylpiperazin-1-yl)-2-oxoethyl]piperazine] | < 1 |
| CC(C)N1CCN(C(=O)CN2CCN(c3cccc(Cl)c3Cl)CC2)CC1 [Compound 262, 1-(2,3-dichlorophenyl)-4-[2-(4-isopropylpiperazin-1-yl)-2-oxoethyl]piperazine] | < 1 |
| CC(C)N1CCN(C(=O)CN2CCN(c3cccc(F)c3)CC2)CC1 [Compound 303, 1-(3-fluorophenyl)-4-[2-(4-isopropylpiperazin-1-yl)-2-oxoethyl]piperazine] | < 1 |

Same assay, conditions: assay of Example 7; "*" in Ki of Table II; read-out: Ki

| Ki [µM] | SMILES |
| --- | --- |
| < 1 | CC(=O)c1ccc(N2C[C@@H](C)N(CC(=O)N3CCN(C4CCC4)CC3)C[C@@H]2C)cc1 (relative stereo) [Compound 1269, rel-1-(4-{(2R,5S)-4-[2-(4-cyclobutylpiperazin-1-yl)-2-oxoethyl]-2,5-dimethylpiperazin-1-yl}phenyl)ethanone] |

Same assay, conditions: assay of Example 7; symbol * in column headed Ki of Table II; read-out: Ki

| SMILES | Ki [µM] |
| --- | --- |
| O=C(CN1CCN(c2ccc(F)cc2F)CC1)N1C[C@H]2C[C@@H]1CN2C1CCC1 [Compound 247, (1R,4R)-2-cyclobutyl-5-{[4-(2,4-difluorophenyl)piperazin-1-yl]acetyl}-2,5-diaza bicyclo[2.2.1]heptane] | < 1 |
| O=C(c1ccccc1)c1ccc(N2CCN(CC(=O)N3CCN(C4CCC4)CC3)CC2)cc1 [Compound 248, (4-{4-[2-(4-cyclobutylpiperazin-1-yl)-2-oxoethyl]piperazin-1-yl}phenyl)(phenyl)methanone] | < 1 |
| O=C(c1ccc(N2CCN(CC(=O)N3CCN(C4CCC4)CC3)CC2)cc1)C1CC1 [Compound 249, (4-{4-[2-(4-cyclobutylpiperazin-1-yl)-2-oxoethyl]piperazin-1-yl}phenyl)(cyclopropyl) methanone] | < 1 |
| O=C(c1ccncc1)c1ccc(N2CCN(CC(=O)N3CCN(C4CCC4)CC3)CC2)cc1 [Compound 250, (4-{4-[2-(4-cyclobutylpiperazin-1-yl)-2-oxoethyl]piperazin-1-yl}phenyl)(pyridin-4-yl)methanone] | < 1 |
| O=C(c1ccccc1)c1ccc(N2CCN(CC(=O)N3CCN(C4CCCC4)CC3)CC2)cc1 [Compound 251, (4-{4-[2-(4-cyclopentylpiperazin-1-yl)-2-oxoethyl]piperazin-1-yl}phenyl)(phenyl)methanone] | < 1 |
| O=C(CN1CCN(c2cccc(C(=O)N3CC[C@H]4CCCC[C@@H]4C3)c2)CC1)N1CCN(C2CCC2)CC1 [Compound 252, (4aR,8aS)-2-(3-{4-[2-(4-cyclobutylpiperazin-1-yl)-2-oxoethyl]piperazin-1-yl}benzoyl) decahydroisoquinoline] | < 1 |
| O=C(CN1CCN(c2ccc(C(=O)N3CC[C@H]4CCCC[C@@H]4C3)cc2)CC1)N1CCN(C2CCC2)CC1 [Compound 253, (4aR,8aS)-2-(4-{4-[2-(4-cyclobutylpiperazin-1-yl)-2-oxoethyl]piperazin-1-yl}benzoyl) decahydroisoquinoline] | < 1 |
| O=C(CN1CCN(c2cccc(C(=O)N3CC[C@@H]4CCCC[C@@H]4C3)c2)CC1)N1CCN(C2CCC2)CC1 [Compound 254, (4aS,8aS)-2-(3-{4-[2-(4-cyclobutylpiperazin-1-yl)-2-oxoethyl]piperazin-1-yl}benzoyl) decahydroisoquinoline] | < 1 |
| O=C(CN1CCN(c2ccc(C(=O)N3CC[C@@H]4CCCC[C@@H]4C3)cc2)CC1)N1CCN(C2CCC2)CC1 [Compound 255, (4aS,8aS)-2-(4-{4-[2-(4-cyclobutylpiperazin-1-yl)-2-oxoethyl]piperazin-1-yl}benzoyl) decahydroisoquinoline] | < 1 |
| CC(C)N1CCN(C(=O)CN2CCN(c3ccc(F)cc3F)CC2)CC1 [Compound 264, 1-(2,4-difluorophenyl)-4-[2-(4-isopropylpiperazin-1-yl)-2-oxoethyl]piperazine] | < 1 |
| Cc1cccc(C)c1N1CCN(CC(=O)N2CCN(C(C)C)CC2)CC1 [Compound 268, 1-(2,6-dimethylphenyl)-4-[2-(4-isopropylpiperazin-1-yl)-2-oxoethyl]piperazine] | < 1 |

Continued, values first:

| Ki [µM] | SMILES |
| --- | --- |
| < 1 | CC(=O)c1cnc(N2CCN(CC(=O)N3CCN(C4CCC4)CC3)CC2)nc1 [Compound 269, 1-(2-{4-[2-(4-cyclobutylpiperazin-1-yl)-2-oxoethyl]piperazin-1-yl}pyrimidin-5-yl)ethanone] |
| < 1 | Cc1ccc(F)c(-c2ccc(N3CCN(CC(=O)N4CCN(C5CCC5)CC4)CC3)cc2)c1Cl [Compound 273, 1-(2′-chloro-6′-fluoro-3′-methylbiphenyl-4-yl)-4-[2-(4-cyclobutylpiperazin-1-yl)-2-oxoethyl]piperazine] |
| < 1 | O=C(CN1CCN(c2ccc(-c3ccccc3Cl)cc2)CC1)N1CCN(C2CCC2)CC1 [Compound 278, 1-(2′-chlorobiphenyl-4-yl)-4-[2-(4-cyclobutylpiperazin-1-yl)-2-oxoethyl]piperazine] |
| < 1 | CC(C)N1CCN(C(=O)CN2CCN(c3ccc(Cl)c(Cl)c3)CC2)CC1 [Compound 283, 1-(3,4-dichlorophenyl)-4-[2-(4-isopropylpiperazin-1-yl)-2-oxoethyl]piperazine] |
| < 1 | CCN1CCN(C(=O)CN2CCN(c3ccc(OC)c(OC)c3)CC2)CC1 [Compound 284, 1-(3,4-dimethoxyphenyl)-4-[2-(4-ethylpiperazin-1-yl)-2-oxoethyl]piperazine] |
| < 1 | COc1ccc(N2CCN(CC(=O)N3CCN(C(C)C)CC3)CC2)cc1OC [Compound 285, 1-(3,4-dimethoxyphenyl)-4-[2-(4-isopropylpiperazin-1-yl)-2-oxoethyl]piperazine] |
| < 1 | CC(=O)c1ccc(-c2cccc(N3CCN(CC(=O)N4CCN(C5CCC5)CC4)CC3)c2)cc1 [Compound 288, 1-(3′-{4-[2-(4-cyclobutylpiperazin-1-yl)-2-oxoethyl]piperazin-1-yl}biphenyl-4-yl)ethanone] |
| < 1 | O=C(CN1CCN(c2cccc(C(=O)N3CCCCCC3)c2)CC1)N1CCN(C2CCC2)CC1 [Compound 289, 1-(3-{4-[2-(4-cyclobutylpiperazin-1-yl)-2-oxoethyl]piperazin-1-yl}benzoyl)azepane] |
| < 1 | O=C(CN1CCN(c2cccc(Br)c2)CC1)N1CCN(C2CCC2)CC1 [Compound 293, 1-(3-bromophenyl)-4-[2-(4-cyclobutylpiperazin-1-yl)-2-oxoethyl]piperazine] |
| < 1 | CC(=O)c1ccc(N2CCN(CC(=O)N3CCN(C4CCC4)CC3)CC2)c(Cl)c1 [Compound 295, 1-(3-chloro-4-{4-[2-(4-cyclobutylpiperazin-1-yl)-2-oxoethyl]piperazin-1-yl}phenyl)ethanone] |
| < 1 | O=C(CN1CCN(c2ccc(-c3ccc(F)c(Cl)c3)cc2)CC1)N1CCN(C2CCC2)CC1 [Compound 297, 1-(3′-chloro-4′-fluorobiphenyl-4-yl)-4-[2-(4-cyclobutylpiperazin-1-yl)-2-oxoethyl]piperazine] |
| < 1 | O=C(CN1CCN(c2ccc(-c3cccc(Cl)c3)cc2)CC1)N1CCN(C2CCC2)CC1 [Compound 300, 1-(3′-chlorobiphenyl-4-yl)-4-[2-(4-cyclobutylpiperazin-1-yl)-2-oxoethyl]piperazine] |
| < 1 | O=C(CN1CCN(c2cccc(Cl)c2)CC1)N1CCN(C2CCC2)CC1 [Compound 301, 1-(3-chlorophenyl)-4-[2-(4-cyclobutylpiperazin-1-yl)-2-oxoethyl]piperazine] |
| < 1 | CC(C)N1CCN(C(=O)CN2CCN(c3cccc(Cl)c3)CC2)CC1 [Compound 302, 1-(3-chlorophenyl)-4-[2-(4-isopropylpiperazin-1-yl)-2-oxoethyl]piperazine] |
| < 1 | CC(=O)c1ccc(N2CCN(CC(=O)N3CCN(C4CCC4)CC3C)CC2)cc1 (centres unmarked) [Compound 304, 1-(4-{4-[2-(4-cyclobutyl-2-methylpiperazin-1-yl)-2-oxoethyl]piperazin-1-yl}phenyl)ethanone] |
| < 1 | CC(=O)c1ccc(N2CCN(CC(=O)N3CCN(C4CCC4)CC3)[C@H](C)C2)cc1 [Compound 306, 1-(4-{4-[2-(4-cyclobutylpiperazin-1-yl)-2-oxoethyl]-3-methylpiperazin-1-yl}phenyl)ethanone] |
